Molecules are shown by their SMILES.

Data set [1] has as its system male Wistar rats. Briefly: Inhibition test of the radiofrequency decerebrate rigidity. The data set is classed as in vivo. To be noted: inhibition time of hindlimb rigidity, intravenously, 5 mg/kg, dissolved in propylene glycol. The method, then:
The rigidity animals were prepared according to the method of Ono et al. [Gen. Pharm., vol. 18, pages 57 - 59 (1987)].
Four male Wistar rats weighing 250 to 350 g were used for each group. The animals were anesthetized with ethyl ether and fixed on a brain stereotaxic apparatus to break the midbrain bilaterally (APO, V-3, L±1.5). Rigidity occurred gradually in the hindlimbs after discontinuation of ethyl ether anesthesia. The test drugs dissolved in propylene glycol were administered intravenously in a dose of 5 mg/kg (0.1 ml per 100 g of rat) to determine the inhibition time of the rigidity.

Data set [2] relates to male ICR mice. Kind of data set: Straub tail test (morphine-induced tail elevation). The data set is classed as in vivo. To be noted: orally 100 mg/kg, 15 mg/kg morphine hydrochloride s.c. after 15 minutes, tail elevation determined after 30 minutes, positive when angle less than 45°. As for the experimental part: The test was carried out according to the method of Ellis et al. [Neuropharmacology, vol. 13, pages 211 - 214 (1974)]. Five male ICR mice weighing 20 to 30 g were used for each group. The test drugs suspended in 0.4% aqueous carboxymethylcellulose solution were administered orally in a dose of 100 mg/kg (0.1 ml per 10 g of mouse). After 15 minutes, 15 mg/kg of morphine hydrochloride was administered subcutaneously, and after 30 minutes, the tail elevation was determined. The muscle relaxation activity was defined as positive when the angle of tail elevation from the horizontal was less than 45°. As a result, the inhibition ratio of Compounds 2, 4 and 8 were each 100%.

Data set [3] concerns male Wistar rats. Kind of data set: Inhibition test of anemic decerebrate rigidity. The data set is classed as in vivo. To be noted: inhibition time of forelimb rigidity, intravenously, 5 mg/kg, dissolved in polyethlene glycol 400. As for the experimental part: The rigidity animals were prepared according to the method of Fukuda et al. [Japanese J. Pharmacol., vol. 24, pages 810 - 813 (1974)].
Four male Wistar rats weighing 250 to 350 g were used for each group.
The animal was incised on the cervical region under the ethyl ether anesthesia, and the common carotid arteries were ligated bilaterally. A trephined opening was made in the occipital bone and the basilar artery was coagulated using a bipolar electro-coagulator. Marked rigidity occurred on the forelimbs after discontinuation of the ethyl ether anesthesia. The test drugs dissolved in polyethlene glycol 400 were each administered intravenously in a dose of 5 mg/kg (0.1 ml per 100 g of rat) to determine the inhibition time of the rigidity.

Data set [4] relates to male ICR mice. Briefly: Acute toxicity test. The data set is classed as in vivo. The conditions noted are these: orally, dose of 1 g/kg, observed 7 days after administration. The method, then: (§1) Ten male ICR mice weighing 25 to 34 g were used. Compound 4 suspended in 0.4 aqueous carboxymethylcellulose solution was each administered orally to mice in a volume of 0.1 ml per 10 g of mice. The survivals were observed 7 days after administration.

The nature of another data set: Acute toxicity test. The data set is classed as in vivo, ICR mice. To be noted: mouse, in vivo, po; mice; p.o.; survivals observed 7 days after administration; read-out: LD₅₀ value. The method, then: as §1

As for `CC(C(=O)NC1CC1)S(=O)(=O)c1ccccc1Cl` (centres unmarked) [Compound 2, N-cyclopropyl-2-(2-chlorophenylsulfonyl)propionamide], the “Inhibition Time” value in the data set with male Wistar rats [1] worked out at 11.7 min; in the data set on male Wistar rats [3] it was 5.0 min. In addition, the inhibition ratio with male ICR mice [2] is reported as 100%.

Take `CC(C(=O)NC1CC1)S(=O)(=O)c1ccccc1Br` (centres unmarked) [Compound 4, N-cyclopropyl-2-(2-bromophenylsulfonyl)propionamide]: the “Inhibition Time” value in the data set on male Wistar rats [1] is 37.0 min. For the same compound, the death entry in the data set with male ICR mice [4] is recorded as “No death occurred”. Further, in “Acute toxicity test”, the LD50 at 168 h was above 1000 mg/kg. In addition, the inhibition ratio in the data set with male ICR mice [2] stood at 100%.

Take `CC(C(=O)NC1CC1)S(=O)(=O)c1ccc(Cl)cc1Cl` (centres unmarked) [Compound 8, N-cyclopropyl-2-(2,4-dichlorophenylsulfonyl)propionamide]: the “Inhibition Time” value came out at 78.0 min in the data set on male Wistar rats [1] and 17.7 min in the data set with male Wistar rats [3]. The inhibition ratio in the data set with male ICR mice [2] was determined as 100%.

Turning to `CC(C(=O)NC1CC1)S(=O)(=O)c1ccc(F)cc1Cl` (centres unmarked) [Compound 11], in the data set with male Wistar rats [1], the “Inhibition Time” value came out at 24.0 min.

The values above are taken from EP0454459A2, “Sulfonylalkanoic acid amide derivatives” (TAISHO PHARMACEUTICAL CO. LTD, priority 1990, dated 1991).
